Active and inactive are the calls of the source.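 How the source made its calls: active means EC50 of 10 µM or lower; inactive means EC50 above 10 µM.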
These compounds were tested against Caspase-7 (Homo sapiens) (UniProt P55210) (assay: procaspase-7 activation by procaspase-3 probe candidates, late-stage follow-up, selectivity assay for procaspase-3 activator project, biochemical, absorbance, PC-7 D3A triple mutant, powder samples (AID 504814)). Conditions: recombinant procaspase-7 D3A, Ac-DEVD-pNA absorbance.
Sequence of Caspase-7 (Homo sapiens) (P55210 whole entry D23A/D198A/D206A): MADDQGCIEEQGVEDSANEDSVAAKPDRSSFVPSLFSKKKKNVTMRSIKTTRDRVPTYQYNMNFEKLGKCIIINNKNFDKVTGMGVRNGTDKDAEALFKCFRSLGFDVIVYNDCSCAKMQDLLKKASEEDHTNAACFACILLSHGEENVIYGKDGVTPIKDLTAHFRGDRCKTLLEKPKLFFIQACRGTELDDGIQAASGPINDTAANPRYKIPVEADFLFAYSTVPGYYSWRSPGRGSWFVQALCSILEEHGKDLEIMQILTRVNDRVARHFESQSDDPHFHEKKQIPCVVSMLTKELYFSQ
Compound `C=CCn1c(=NC(=O)c2cc(-c3cccs3)nc3ccccc23)sc2cc(S(N)(=O)=O)ccc21` has an EC50 of 7.68 µM.
In the case of `CC(NC(=O)c1cc2cc([N+](=O)[O-])ccc2oc1=O)C1CCCO1` (stereo not given), the EC50 is reported as “inactive”.
In the case of `COc1ccccc1Nc1nc2c(C)cccc2cc1C#N`, the EC50 is reported as > 85.3 µM (inactive).
For `CC(=O)Oc1cccc2c1C(=O)c1c(OC(C)=O)cc(C(=O)O)cc1C2=O`, the EC50 was “inactive”.
In the case of `COC(=O)c1ccccc1NCc1cc(=O)oc2cc(O)c(O)cc12`, the EC50 is reported as > 85.3 µM (inactive).
